Source: patent publication US4714699A, “2-tolylmorpholine derivatives and pharmaceutical compositions” (Societe Anonyme Dite: Laboratoire L. Lafon, priority 1983, dated 1987)
“Also recorded” adds a separate entry of the source. Read-outs that look alike come from different tables or passages of the source.

Legend:
[1] = interaction with apomorphine in mice; assay type: in vivo, male mice; details: mice
Experimental: (§1) In the following tests, CRL 40 875, in solution in distilled water, was administered intraperitoneally in a volume of 20 ml/kg to male mice and 5 ml/kg to male rats.
Groups of 6 mice receive CRL 40 875 0.5 hour before the subcutaneous injection of 1 or 16 mg/kg of apomorphine.
(§2) In the following tests, CRL 40 897, in solution in distilled water (pH 4), was administered intraperitoneally in a volume of 20 ml/kg to male mice and in a volume of 5 ml/kg to male rats, the procedures being those given above for CRL 40 875.
(§3) In the tests undertaken, CRL 40 912, in solution in distilled water (pH 4.5), was administered intraperitoneally in a volume of 20 ml/kg to male mice and in a volume of 5 ml/kg to male rats, the procedures being those given above for CRL 40 875.

[2] = action on the spontaneous motility; assay type: in vivo, male mice; details: mice
Experimental: as §1
Half an hour after they have received CRL 40 875, the mice (6 per dose, 12 control animals) are placed in an actimeter, where their motility is recorded for 30 minutes.
as §2

[3] = interaction with apomorphine in rats; assay type: in vivo, male rats; details: i.p., 0.5 mg/kg apomorphine
Experimental: as §1
CRL 40 875 is administered to groups of 6 rats 0.5 hour before the subcutaneous injection of 0.5 mg/kg of apomorphine.
as §2, §3

[4] = neuropsychopharmacological study, overall findings; assay type: in vivo, mice, rats; details: for sedative effects: weak doses where stated
Experimental: as §1, §2, §3
(§4) The toxicological and neuropsychopharmacological studies undertaken in accordance with the procedures described above for CRL 40 875 enabled the following observations to be made: […]

α-adrenergic = α-adrenergic stimulation; details: in vivo; hydrochloride
electric shock = assay type: in vivo, male mice; details: i.p., mice
Experimental: as §1
(§5) The test is performed on groups of 10 mice half an hour after the administration of CRL 40 875.
as §2

traction test = assay type: in vivo, male mice; details: i.p., mice
Experimental: as §1, §5, §2

[5] = motility reduced by habituation to the enclosure; assay type: in vivo, male mice; details: i.p.
Experimental: as §1
After they have stayed in the actimeters for 18 hours, the mice (6 per dose, 12 control animals) receive CRL 40 875. They are immediately returned to their respective enclosures and, half an hour later, their motility is recorded for 30 minutes.
as §2, §3

[6] = interaction with amphetamine; assay type: in vivo, male rats; details: i.p.; 2 mg/kg amphetamine; rats
Experimental: as §1, §2, §3

[7] = pretoxicity (LD-O, maximum non-lethal dose); assay type: in vivo, male mice; details: for LD-O (maximum non-lethal dose): intraperitoneally, male mice
Experimental: as §1, §2, §3, §4

[8] = cardiovascular study in dogs; assay type: in vivo; details: for minimal effective dose: Canis lupus familiaris, read-out: dose as from which femoral flow rate is increased; for vasodilator property: dog, in vivo
[9] = overall behavior and reactivities in mice; assay type: in vivo, male mice
Experimental: as §1
Groups of three mice are observed before and then 15 minutes, 30 minutes, 1 hour, 2 hours, 3 hours and 24 hours after the administration of CRL 40 875.
as §2, §4

[10] = interaction with reserpine; assay type: in vivo, male mice; details: i.p., mice
Experimental: as §1
Four hours after the intraperitoneal injection of 2.5 mg/kg of reserpine, groups of 6 mice receive CRL 40 875. The effects on the temperature and ptosis are observed.
as §2, §3

four plate test = assay type: in vivo, male mice; details: i.p., mice
Experimental: as §1, §5, §2

[11] = cardiovascular study in rats; assay type: in vivo; details: normally hypertensive rats
[12] = motility reduced by hypoxic aggression; assay type: in vivo, male mice; details: i.p.
Experimental: as §1
Half an hour after they have received CRL 40 875, the mice (10 per dose, 20 control animals) are subjected to acute hypobaric anoxia [pressure reduction of 600 mm Hg (i.e. about 8×10^4 pascals) in 90 seconds; release of vacuum in 45 seconds] and are then placed in an actimeter, where their motility is recorded for 10 minutes.
as §2

[13] = action on the intergroup aggressiveness; assay type: in vivo, male mice; details: 0.5 mg/kg and 2 mg/kg i.p., mice
Experimental: as §1
After they have stayed for 3 weeks in the two halves of a cage divided by an opaque partition, groups of 3 mice receive CRL 40 875. Half an hour later, the two groups from the same cage are brought together by removal of the partition, and the number of fights which occur in 10 minutes is noted.
as §2, §3

[14] = interaction with oxotremorine; assay type: in vivo, male mice
Experimental: as §1
CRL 40 875 is administered to groups of 6 mice half an hour before the intraperitoneal injection of 0.5 mg/kg of oxotremorine.
as §2, §3

[15] = asphyxiant anoxia (gallamine triiodoethylate); assay type: in vivo, male mice; details: i.p., mice
Experimental: as §1
Groups of 20 mice receive CRL 40 875 half an hour before the intraperitoneal administration of 32 mg/kg of gallamine triidoethylate (which is a reference curarizing agent).
as §2, §3

[16] = clinical trials, treatment of depressions; assay type: in vivo; details: man
From the text: In clinical trials, good results were obtained on man with CRL 40 875 (Example 1), CRL 40 912 (Example 2) and CRL 40 897 (Example 3) in the treatment of depressions.

overall behavior in rats = assay type: in vivo, male rats
Experimental: as §1, §4

[17] = from EP-A-80,940, page 13, lines 6-10; cited from earlier work
β2 = β2 effect in dogs; assay type: in vivo; details: intraduodenal, anesthetized dogs
β1 = β1 effect in dogs; assay type: in vivo; details: intraduodenal, anesthetized dogs
[18] = 64 mg/kg and 32 mg/kg i.p., mice
[19] = 128 mg/kg i.p., groups of three mice
[20] = anesthetized dogs, intraduodenal (CRL 40 903: then intravenous)
[21] = intraduodenal, anesthetized dogs

Cc1ccc(C2CN(C(C)C)CCO2)cc1.Cl (stereo not drawn) [CRL 40 875, 2-p-tolyl-4-isopropylmorpholine hydrochloride]
intrinsic hypothermic effect ([1]; i.p.): exerts an intrinsic hypothermic effect | effect on righting behavior and stereotypies ([1]; i.p., apomorphine): does not modify the righting behavior and the stereotypies | effect on the hypothermia induced by apomorphine ([1]; strong dose (32 mg/kg) i.p., 16 mg/kg apomorphine): partially opposes the hypothermia induced by 16 mg/kg of apomorphine | hypomotility ([2]; 8 and 32 mg/kg i.p.): very significant | minimal effective dose ([2]; Mus musculus, ip, read-out: dose as from which motility is reduced): ≥ 2 mg/kg | effect on stereotypies induced by apomorphine [3]: does not substantially impair the stereotype behavior induced by apomorphine in rats | variation of sedative effects with dose ([4]; in vivo): increase continuously with the dose administered, up to a maximum value, and then decrease continuously and progressively as the dose increases | antidepressant effects ([4]; strong doses, hydrochloride): antidepressant effects (antagonism of the hypothermia induced by apomorphine and oxotremorine); also recorded: antidepressants at strong doses | sedative effects ([4]; hydrochloride): sedative effects (hyporeactivity, hypothermia, hypomotility, significant reduction of aggressiveness, delayed onset of asphyxiant convulsions); also recorded: sedative effects (hypomotility, hypothermia, reduction of intergroup aggressiveness | α-adrenergic stimulant effect (α-adrenergic): signs of peripheral α-adrenergic stimulation (salivation, piloerection, trembling); also recorded: stimulant effects, especially of the α-adrenergic type | effect on electric shock (electric shock): does not modify the convulsant effects of electric shock | major motor incapacity (traction test): does not cause major motor incapacity | resumption in the activity of mice accustomed to their enclosure [5]: does not cause a resumption in the activity of mice accustomed to their enclosure | effect on stereotypies induced by amphetamine [6]: stereotypies induced by amphetamine are not modified | mortality [7, 18]: no mortality | signs of toxicity [7, 18]: abdominal cramp and trembling | mortality [7, 19]: death (of the 3 animals in the group) | signs of toxicity [7, 19]: thick saliva and convulsions | time to death ([7]; 128 mg/kg i.p., mice): 10 min | effect on blood pressure and heart rate ([8]; dogs): hypotensive and tachycardiac agent | duration of hypothermia ([9]; 2 mg/kg i.p., mice): 0.5 h | hypothermia (temperature change) ([9]; 2 mg/kg i.p., mice): -1.5 °C | duration of hypothermia ([9]; 8 mg/kg i.p., mice): 1 h | duration of piloerection ([9]; 8 mg/kg i.p., mice): 3 h | hypothermia (temperature change) ([9]; 8 mg/kg i.p., mice): -3.9 °C | piloerection, animals affected ([9]; 8 mg/kg i.p., mice): 2/3 | duration of mydriasis ([9]; 32 mg/kg i.p., mice): 0.5 h | duration of reduction in the reactivity to touch and muscular tonus ([9]; 32 mg/kg i.p., mice): 2 h | hypothermia (temperature change) ([9]; 32 mg/kg i.p., mice): -4.1 °C | mydriasis ([9]; 32 mg/kg i.p., mice): moderate mydriasis | piloerection, animals affected ([9]; 32 mg/kg i.p., mice): 2 out of 3 | effect on the ptosis induced by reserpine [10]: without modifying the ptosis induced by reserpine | effect on the hypothermia induced by reserpine ([10]; strong dose): aggravates the hypothermia induced by reserpine | number of punished passes (four plate test): does not cause an increase in the number of punished passes | cardiovascular parameters [11]: does not modify the cardiovascular parameters | motor recovery in mice after reduced-pressure enclosure [12]: does not cause an improvement in the motor recovery | effect on number of fights [13]: suppression of the fights | effect on the motor activity [13]: only a moderate effect on the motor activity | effect on peripheral cholinergic symptoms (defecation) after oxotremorine ([14]; 0.5, 2, 8 and 32 mg/kg i.p., mice): increases the proportion of mice which exhibit defecation | effect on the trembling due to oxotremorine ([14]; 8 and 32 mg/kg i.p., mice): seems to increase the duration of the trembling due to oxotremorine | hypothermic effect ([14]; i.p., mice): exerts a hypothermic effect | effect on the temperature drop caused by oxotremorine ([14]; strong dose, i.p.): partially opposes the temperature drop caused by oxotremorine | time taken for convulsions and death to occur following asphyxiant anoxia [15]: delays the time taken for convulsions and death to occur | results in the treatment of depressions [16]: good results

Cc1ccc(C2CN(C(C)(C)C)CCO2)cc1.Cl (stereo not drawn) [CRL 40 903, 2-p-tolyl-4-tert.-butylmorpholine hydrochloride]
sedative effects [4]: sedative effects | sedation and depressed respiration (overall behavior in rats; 32 mg/kg i.p., male rats): induce sedation and depressed respiration | LD-O (maximum non-lethal dose) [7]: greater than 128 mg/kg | maximum increase in femoral flow rate ([8]; 20 mg/kg, anesthetized dogs, intraduodenal then intravenous): +150% | minimal effective dose [8, 20]: ≥ 2.5 mg/kg | dose as from which tachycardia appears [8, 20]: ≥ 1 mg/kg | effect on blood pressure [8, 20]: no action on the blood pressure | effect on the hypertension induced by noradrenaline [8, 20]: does not modify the hypertension induced by noradrenaline | effect on the hypotension / effects of isoprenaline [8, 20]: reduces the hypotension induced by isoprenaline | effect of propanolol on induced vasodilation ([8]; anesthetized dogs, intraduodenal then intravenous): not completely suppressed by propanolol | vasodilator property [8]: particularly interesting as vasodilators | sedation and depressed respiration ([9]; 64 mg/kg and 128 mg/kg i.p., male mice): induce sedation and depressed respiration

Cc1ccccc1C1CN(C)CCO1 (stereo not drawn) [CRL 40 915, 2-o-tolyl-4-methylmorpholine]
variation of sedative effects with dose [17]: no sedation at a given dose, significant sedation at the next highest dose used

CCN1CCOC(O)(c2cccc(C(F)(F)F)c2)C1.Cl (stereo not drawn) [CRL 41 092, 2-(m-trifluoromethylphenyl)-2-hydroxy-4-ethylmorpholine hydrochloride]
sedative effects [4]: sedative effects | β2 effect (β2): very slightly β1^- and β2^- | sedation, reactivity to touch and muscular tonus (overall behavior in rats; 64 mg/kg i.p., rats): transistory sedation with a reduction in the reactivity to touch and the muscular tonus | LD-O (maximum non-lethal dose) [7]: greater than 256 mg/kg | minimal effective dose [8, 20]: ≥ 1 mg/kg | effect on blood pressure [8, 20]: tends to increase the blood pressure | effect on the hypertension induced by noradrenaline [8, 20]: increases the hypertension induced by noradrenaline | femoral flow rate ([8]; as from 1 mg/kg intraduodenally, anesthetized dogs): greatly increases the femoral flow rate | vasodilator property [8]: particularly interesting as vasodilators | effect on heart beat [8, 21]: does not modify the heart beat | rectal and skin temperatures [8, 21]: a reduction in the vertebral flow rate and also in the rectal and skin temperatures | vertebral flow rate [8, 21]: a reduction in the vertebral flow rate | femoral flow rate after propanolol ([8]; propanolol injected at the end of the test, anesthetized dogs): remaining above its control value | effect of propanolol on heart beat and femoral flow rate ([8]; propanolol injected at the end of the test, anesthetized dogs, intraduodenal): very slightly reduces the heart beat and femoral flow rate | hypothermia ([9]; 32 mg/kg i.p., mice): moderate hypothermia | duration of sedation ([9]; 128 mg/kg i.p., mice): 0.5 h | fear reaction, reactivity to touch and muscular tonus ([9]; 128 mg/kg i.p., mice): a reduction in the fear reaction, the reactivity to touch and the muscular tonus | β1 effect (β1): very slightly β1^-
